Laboratory results as given in patent US8952176B2, “Heterocyclic compound having type I 11 β hydroxysteroid dehydrogenase inhibitory activity” (Shionogi & Co., Ltd., priority 2005, dated 2015).

Key:
[1] = molecular target: recombinant mouse 11β-HSD1 (Mus musculus, UniProt P50172); test: Enzyme activity assay on mouse 11β-HSD1 (HTRF corticosterone); type: biochemical; settings: recombinant mouse 11β-HSD1, 11-dehydrocorticosterone substrate, 2 hours at 37° C.
Protocol: […] (Enzyme Activity Assay on Mouse 11β-HSD1)
Enzymatic activity for mouse 11β-HSD1 activity was determined in a 10 μl final volume of assay mixture containing 50 mM sodium phosphate buffer (pH 7.6), 1 mg/ml bovine serum albumin, 0.042 mg/ml NADPH, 1.26 mg/ml glucose-6-phosphate, glucose-6-phosphate dehydrogenase, test compound, recombinant mouse 11β-HSD1, and […] 11-dehydrocorticosterone as substrate. The reaction was started with the addition of 11-dehydrocorticosterone. After incubation for 2 hours at 37° C., 5 μl of europium cryptate-labelled anti-cortisol antibody and 5 μl of XL665-labeled cortisol were added. After further incubation for 2 hours at room temperature, the HTFR signal was measured. The corticosterone production was quantitated by a standard curve generated with several known concentrations of corticosterone in each assay.
Corticosterone production without compounds was served as control, and the percent inhibition by compound at each concentration was calculated. The IC50 value of the compound for 11β-HSD1 was obtained using the inhibition curve generated by plotting the percent inhibition versus the concentration of test compound.

[2] = molecular target: recombinant human 11β-HSD1 (Homo sapiens, UniProt P28845); test: Enzyme activity assay on human 11β-HSD1 (HTRF cortisol); type: biochemical; settings: recombinant human 11β-HSD1, 5 μM cortisone, 2 hours at 37° C.
Protocol: Evaluation of 11β-HSD1 Inhibitors (Enzyme Activity Assay on Human 11β-HSD1)
Enzymatic activity for human 11β-HSD1 was determined in a 10 μl final volume of assay mixture containing 50 mM sodium phosphate buffer (pH 7.6), 1 mg/ml bovine serum albumin, 0.42 mg/ml NADPH, 1.26 mg/ml glucose-6-phosphate, glucose-6-phosphate dehydrogenase, test compound, recombinant human 11β-HSD1, and 5 μM cortisone as substrate. The reaction was started with the addition of cortisone. After incubation for 2 hours at 37° C., 5 μl of europium cryptate-labelled anti-cortisol antibody and 5 μl of XL665-labeled cortisol were added. After further incubation for 2 hours at room temperature, the homogeneous time-resolved fluorescence (HTRF) signal was measured. The cortisol production was quantitated by a standard curve generated with several known concentrations of cortisol in each assay.
The amount of cortisol production without compounds was served as control, and the percent inhibition by test compound at each concentration was calculated. The IC50 value of the compound for 11β-HSD1 was obtained using the inhibition curve generated by plotting the percent inhibition versus the concentration of text compound.

Chain of recombinant human 11β-HSD1 (P28845 whole entry): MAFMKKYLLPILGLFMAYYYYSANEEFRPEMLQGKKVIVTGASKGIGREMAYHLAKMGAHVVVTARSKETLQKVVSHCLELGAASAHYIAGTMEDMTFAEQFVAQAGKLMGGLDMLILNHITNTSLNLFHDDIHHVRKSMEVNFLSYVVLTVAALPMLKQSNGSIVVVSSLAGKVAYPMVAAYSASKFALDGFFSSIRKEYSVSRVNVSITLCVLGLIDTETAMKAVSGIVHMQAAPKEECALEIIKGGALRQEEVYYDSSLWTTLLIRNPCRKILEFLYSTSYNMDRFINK
Chain of recombinant mouse 11β-HSD1 (P50172 whole entry): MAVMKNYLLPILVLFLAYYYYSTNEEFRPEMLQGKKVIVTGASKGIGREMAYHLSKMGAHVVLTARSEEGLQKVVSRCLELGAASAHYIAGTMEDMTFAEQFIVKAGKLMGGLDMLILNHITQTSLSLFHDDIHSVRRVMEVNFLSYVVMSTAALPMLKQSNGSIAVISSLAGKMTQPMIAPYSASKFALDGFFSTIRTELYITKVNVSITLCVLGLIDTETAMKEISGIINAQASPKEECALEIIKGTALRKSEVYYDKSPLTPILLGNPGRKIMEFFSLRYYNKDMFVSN

IC50 [1] [µM]	IC50 [2] [µM]	SMILES
11.6	0.016	Cc1noc(C(=O)c2ccccc2)c1SC1CCCCC1 [Compound A-15]
21	0.015	Cc1noc(C(=O)NC23CC4CC(CC(C4)C2)C3)c1SC1CCCCCC1 [Compound A-21]
6	0.08	Cc1noc(C(=O)NC23CC4CC(CC(C4)C2)C3)c1SC1CCCCC1 [Compound A-12]
5.9	0.093	COc1noc(C(=O)c2ccccc2)c1S(=O)(=O)c1ccccc1 [Compound A-20]
21	0.084	Cc1noc(C(=O)NC23CC4CC(CC(C4)C2)C3)c1Sc1ccccc1 [Compound A-1]
